Test results published in ChEMBL document CHEMBL4842364 (J Med Chem, 2021).
Activity calls are given as the source filed them. The rule behind the calls is not given here.

What was measured:
NCI-H23 = assay: Antiproliferative activity against human NCI-H23 cells assessed as reduction in cell viability after 4 days by CellTiter-Glo assay; conditions: Homo sapiens, NCI-H23, 96 h
[1] = Octanol/buffer distribution coefficient, logD of the compound at pH 7.4; assay type: physicochemical
[2] = Plasma protein binding in human; assay type: ADME, cell-free; conditions: read-out: PPB (converted)
[3] = Intrinsic clearance in human microsomes; assay type: ADME, Microsome
[4] = Permeability of the compound across apical to basolateral side in human Caco-2 cells; assay type: ADME, cell-based; conditions: read-out: permeability
[5] = Permeability of the compound across basolateral to apical side in human Caco-2 cells; assay type: ADME, cell-based; conditions: read-out: permeability
[6] = AUC(0 to 24 hrs) in mouse at 10 mg/kg, po; assay type: ADME, organism-based; parameters: time < 24 hr, route oral, dose 10 mg/kg; conditions: in vivo, 24 h
[7] = AUC(0 to 24 hrs) in mouse at 60 mg/kg, po; assay type: ADME, organism-based; parameters: time < 24 hr, route oral, dose 60 mg/kg; conditions: in vivo
A-427 [8] = assay: Antitumor activity against human A-427 cells xenografted in SCID mouse assessed as reduction in tumor growth at 80 mg/kg, po administered once daily for 28 days and measured twice per weeks; assay type: functional, organism-based; conditions: time 28.0 day
[9] = AUC in mouse plasma at 80 mg/kg, po administered once daily for 28 days; assay type: ADME, organism-based; parameters: time 28 day, dose 80 mg/kg
A-427 [10] = assay: Antiproliferative activity against human A-427 cells assessed as reduction in cell viability after 3 days by CellTiter-Glo assay; assay type: functional, cell-based; conditions: A-427, 72 h
Cytochrome P450 3A4 = Cytochrome P450 3A4 (Homo sapiens, UniProt P08684); assay: Inhibition of CYP3A4 (unknown origin); assay type: ADME
[11] = Efflux ratio of permeability from basolateral to apical side over apical to basolateral side in human Caco-2 cells; assay type: ADME, cell-based
Wee1-like protein kinase = Wee1-like protein kinase (Homo sapiens, UniProt P30291)
Description: Displacement of Alexa Fluor labelled kinase tracer178 from WEE1 (unknown origin) incubated for 60 mins by FRET assay

[12] = Intrinsic clearance in mouse microsomes; assay type: ADME, Microsome
[13] = AUC(0 to 24 hrs) in rat at 60 mg/kg, po; assay type: ADME, organism-based; parameters: time < 24 hr, route oral, dose 60 mg/kg; conditions: in vivo
[14] = Plasma protein binding in mouse; assay type: ADME, cell-free; conditions: read-out: PPB (converted)
[15] = target: Serine/threonine-protein kinase PLK2 (Homo sapiens, UniProt Q9NYY3); assay: Inhibition of PLK2 (unknown origin) at 1 uM relative to control
[16] = target: T1, Mitogen-activated protein kinase kinase kinase 19 (Homo sapiens) (UniProt Q56UN5); assay: Inhibition of YSK4 (unknown origin) at 1 uM relative to control
T1 sequence (whole entry): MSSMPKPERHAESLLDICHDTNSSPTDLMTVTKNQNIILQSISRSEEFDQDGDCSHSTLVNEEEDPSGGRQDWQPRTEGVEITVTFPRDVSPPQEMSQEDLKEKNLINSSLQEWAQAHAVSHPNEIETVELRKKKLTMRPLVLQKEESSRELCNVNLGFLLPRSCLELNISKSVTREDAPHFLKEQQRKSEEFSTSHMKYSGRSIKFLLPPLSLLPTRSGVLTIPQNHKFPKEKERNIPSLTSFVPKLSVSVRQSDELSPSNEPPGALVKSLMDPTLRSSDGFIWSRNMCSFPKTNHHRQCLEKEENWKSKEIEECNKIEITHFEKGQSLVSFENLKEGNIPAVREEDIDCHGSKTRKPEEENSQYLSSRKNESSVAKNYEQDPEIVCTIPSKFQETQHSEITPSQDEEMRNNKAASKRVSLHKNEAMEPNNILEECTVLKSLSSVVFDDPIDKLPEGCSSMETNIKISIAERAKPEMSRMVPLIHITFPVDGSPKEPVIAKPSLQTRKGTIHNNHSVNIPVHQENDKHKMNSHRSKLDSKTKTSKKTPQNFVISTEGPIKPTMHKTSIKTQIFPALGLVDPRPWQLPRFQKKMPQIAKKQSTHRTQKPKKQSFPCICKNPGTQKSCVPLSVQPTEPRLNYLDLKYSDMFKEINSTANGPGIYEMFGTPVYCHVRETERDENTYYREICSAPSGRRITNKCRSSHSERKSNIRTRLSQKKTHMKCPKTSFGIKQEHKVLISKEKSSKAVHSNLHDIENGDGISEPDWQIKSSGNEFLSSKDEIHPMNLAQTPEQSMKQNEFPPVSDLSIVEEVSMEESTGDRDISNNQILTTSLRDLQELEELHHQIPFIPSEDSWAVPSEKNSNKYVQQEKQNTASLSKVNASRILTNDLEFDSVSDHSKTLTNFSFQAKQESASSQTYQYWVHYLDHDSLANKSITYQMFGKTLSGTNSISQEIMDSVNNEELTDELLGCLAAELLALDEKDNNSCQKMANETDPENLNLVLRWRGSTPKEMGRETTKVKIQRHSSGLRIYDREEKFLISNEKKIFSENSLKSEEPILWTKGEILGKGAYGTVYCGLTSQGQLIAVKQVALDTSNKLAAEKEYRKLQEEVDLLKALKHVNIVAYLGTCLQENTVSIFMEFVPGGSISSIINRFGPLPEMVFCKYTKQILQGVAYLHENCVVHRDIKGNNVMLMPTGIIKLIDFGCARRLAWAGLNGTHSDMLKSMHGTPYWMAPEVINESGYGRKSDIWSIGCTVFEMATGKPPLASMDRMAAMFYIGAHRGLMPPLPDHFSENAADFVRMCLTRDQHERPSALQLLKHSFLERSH

[17] = target: Epidermal growth factor receptor (Homo sapiens) (UniProt P00533); assay: Inhibition of EGFR (unknown origin) at 1 uM relative to control
[18] = target: Serine/threonine-protein kinase PLK3 (Homo sapiens, UniProt Q9H4B4); assay: Inhibition of PLK3 (unknown origin) at 1 uM relative to control
[19] = target: T2, Cyclin-G-associated kinase (Homo sapiens) (UniProt O14976); assay: Inhibition of GAK (unknown origin) at 1 uM relative to control
T2 sequence (whole entry): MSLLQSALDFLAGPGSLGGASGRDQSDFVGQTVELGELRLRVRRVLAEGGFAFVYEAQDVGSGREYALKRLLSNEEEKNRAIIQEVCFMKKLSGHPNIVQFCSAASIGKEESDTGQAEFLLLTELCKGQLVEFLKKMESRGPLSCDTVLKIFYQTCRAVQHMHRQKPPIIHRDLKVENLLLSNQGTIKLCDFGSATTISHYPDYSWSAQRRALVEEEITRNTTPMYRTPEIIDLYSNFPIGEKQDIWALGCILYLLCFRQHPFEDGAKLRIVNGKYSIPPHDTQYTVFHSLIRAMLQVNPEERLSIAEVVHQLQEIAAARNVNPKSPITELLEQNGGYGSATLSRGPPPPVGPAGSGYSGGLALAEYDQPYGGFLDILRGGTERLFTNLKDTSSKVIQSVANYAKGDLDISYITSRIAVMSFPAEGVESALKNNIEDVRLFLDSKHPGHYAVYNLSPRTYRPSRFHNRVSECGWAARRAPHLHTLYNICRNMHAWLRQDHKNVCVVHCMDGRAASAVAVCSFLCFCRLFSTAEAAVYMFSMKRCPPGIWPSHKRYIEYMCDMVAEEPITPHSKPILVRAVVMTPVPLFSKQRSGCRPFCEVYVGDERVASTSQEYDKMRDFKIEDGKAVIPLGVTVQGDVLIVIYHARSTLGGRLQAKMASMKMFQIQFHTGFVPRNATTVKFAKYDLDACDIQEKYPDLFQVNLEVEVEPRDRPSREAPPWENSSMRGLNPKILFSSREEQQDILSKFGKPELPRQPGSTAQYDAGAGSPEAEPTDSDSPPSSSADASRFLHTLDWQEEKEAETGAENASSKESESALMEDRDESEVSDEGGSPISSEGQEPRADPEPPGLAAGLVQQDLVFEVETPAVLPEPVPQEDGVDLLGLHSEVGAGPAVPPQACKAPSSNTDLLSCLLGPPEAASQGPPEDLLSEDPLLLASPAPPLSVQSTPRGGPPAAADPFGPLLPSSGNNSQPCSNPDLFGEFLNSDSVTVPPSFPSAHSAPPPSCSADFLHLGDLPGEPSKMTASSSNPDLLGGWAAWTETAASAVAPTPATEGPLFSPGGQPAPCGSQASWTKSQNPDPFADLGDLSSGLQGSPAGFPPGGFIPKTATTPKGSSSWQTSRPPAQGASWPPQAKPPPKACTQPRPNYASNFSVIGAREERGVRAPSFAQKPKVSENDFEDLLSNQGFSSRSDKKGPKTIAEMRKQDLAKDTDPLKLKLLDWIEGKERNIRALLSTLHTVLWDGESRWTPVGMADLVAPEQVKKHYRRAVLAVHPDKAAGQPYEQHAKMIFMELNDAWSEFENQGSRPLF

Wee1-like protein kinase, sequence (P30291 whole entry): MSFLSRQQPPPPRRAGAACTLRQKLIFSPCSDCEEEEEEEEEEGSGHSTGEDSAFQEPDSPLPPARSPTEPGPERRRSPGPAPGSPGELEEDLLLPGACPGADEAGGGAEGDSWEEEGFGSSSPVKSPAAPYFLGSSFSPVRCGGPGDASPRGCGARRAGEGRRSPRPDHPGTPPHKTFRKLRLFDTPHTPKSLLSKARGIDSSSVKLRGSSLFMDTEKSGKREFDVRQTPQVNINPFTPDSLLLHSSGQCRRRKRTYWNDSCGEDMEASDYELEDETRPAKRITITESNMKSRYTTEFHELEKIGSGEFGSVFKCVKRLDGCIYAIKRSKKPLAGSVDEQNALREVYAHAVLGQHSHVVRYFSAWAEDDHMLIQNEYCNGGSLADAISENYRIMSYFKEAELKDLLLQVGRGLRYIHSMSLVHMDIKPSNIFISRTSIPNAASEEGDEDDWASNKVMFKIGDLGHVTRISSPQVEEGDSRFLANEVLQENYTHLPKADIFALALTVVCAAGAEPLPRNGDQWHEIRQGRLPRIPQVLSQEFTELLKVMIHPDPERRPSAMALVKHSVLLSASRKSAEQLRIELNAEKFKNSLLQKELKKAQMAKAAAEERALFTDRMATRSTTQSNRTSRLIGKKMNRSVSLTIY
Cytochrome P450 3A4, sequence (P08684 whole entry): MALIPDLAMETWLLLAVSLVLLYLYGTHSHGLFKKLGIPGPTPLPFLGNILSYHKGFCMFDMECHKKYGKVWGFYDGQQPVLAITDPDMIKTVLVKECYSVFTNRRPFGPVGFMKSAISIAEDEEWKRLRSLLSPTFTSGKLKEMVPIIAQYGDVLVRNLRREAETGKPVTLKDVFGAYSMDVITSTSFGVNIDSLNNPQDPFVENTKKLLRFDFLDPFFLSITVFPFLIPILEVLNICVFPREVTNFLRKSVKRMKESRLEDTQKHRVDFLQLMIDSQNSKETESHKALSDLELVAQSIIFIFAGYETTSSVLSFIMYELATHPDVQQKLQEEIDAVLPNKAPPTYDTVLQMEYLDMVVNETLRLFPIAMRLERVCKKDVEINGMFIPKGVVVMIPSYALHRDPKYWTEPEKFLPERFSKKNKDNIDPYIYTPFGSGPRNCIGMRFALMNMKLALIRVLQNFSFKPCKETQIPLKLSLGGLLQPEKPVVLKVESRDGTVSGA
Serine/threonine-protein kinase PLK3, sequence (Q9H4B4 whole entry, looked up): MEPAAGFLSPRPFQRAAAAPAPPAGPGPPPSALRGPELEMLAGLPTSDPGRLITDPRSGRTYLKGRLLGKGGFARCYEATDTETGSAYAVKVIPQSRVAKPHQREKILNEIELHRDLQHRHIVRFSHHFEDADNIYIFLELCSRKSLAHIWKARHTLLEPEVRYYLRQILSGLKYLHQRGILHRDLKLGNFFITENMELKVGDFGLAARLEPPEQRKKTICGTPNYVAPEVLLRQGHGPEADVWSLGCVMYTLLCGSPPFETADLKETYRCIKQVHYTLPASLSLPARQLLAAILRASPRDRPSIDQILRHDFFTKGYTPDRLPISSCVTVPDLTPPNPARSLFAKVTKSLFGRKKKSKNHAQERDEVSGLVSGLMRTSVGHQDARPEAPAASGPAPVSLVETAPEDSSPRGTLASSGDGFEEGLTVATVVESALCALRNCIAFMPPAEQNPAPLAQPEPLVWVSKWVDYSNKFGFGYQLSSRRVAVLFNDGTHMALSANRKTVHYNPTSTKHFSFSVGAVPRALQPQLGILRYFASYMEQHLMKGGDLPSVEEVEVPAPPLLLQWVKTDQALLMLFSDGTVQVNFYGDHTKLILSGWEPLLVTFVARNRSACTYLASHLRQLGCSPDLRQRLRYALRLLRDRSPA
Serine/threonine-protein kinase PLK2, sequence (Q9NYY3 whole entry, looked up): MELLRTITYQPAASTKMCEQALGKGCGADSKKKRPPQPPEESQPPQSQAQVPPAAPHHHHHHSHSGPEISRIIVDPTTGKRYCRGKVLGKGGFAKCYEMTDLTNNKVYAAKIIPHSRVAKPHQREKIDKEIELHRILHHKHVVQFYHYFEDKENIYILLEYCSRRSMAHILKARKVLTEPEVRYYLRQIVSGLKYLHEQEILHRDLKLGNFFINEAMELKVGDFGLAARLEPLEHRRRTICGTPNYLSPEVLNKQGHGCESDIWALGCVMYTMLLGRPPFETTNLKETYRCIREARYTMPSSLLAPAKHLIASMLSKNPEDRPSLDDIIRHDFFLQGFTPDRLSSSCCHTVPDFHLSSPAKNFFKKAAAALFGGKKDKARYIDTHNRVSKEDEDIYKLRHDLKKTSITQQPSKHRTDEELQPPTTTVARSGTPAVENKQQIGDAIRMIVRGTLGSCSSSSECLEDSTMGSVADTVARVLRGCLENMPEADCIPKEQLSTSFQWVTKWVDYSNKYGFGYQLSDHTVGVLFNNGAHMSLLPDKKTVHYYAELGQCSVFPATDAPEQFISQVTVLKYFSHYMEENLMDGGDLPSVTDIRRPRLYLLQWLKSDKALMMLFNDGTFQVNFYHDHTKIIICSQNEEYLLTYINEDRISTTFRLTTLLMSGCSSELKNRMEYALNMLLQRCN
Epidermal growth factor receptor (Homo sapiens), sequence (P00533 whole entry): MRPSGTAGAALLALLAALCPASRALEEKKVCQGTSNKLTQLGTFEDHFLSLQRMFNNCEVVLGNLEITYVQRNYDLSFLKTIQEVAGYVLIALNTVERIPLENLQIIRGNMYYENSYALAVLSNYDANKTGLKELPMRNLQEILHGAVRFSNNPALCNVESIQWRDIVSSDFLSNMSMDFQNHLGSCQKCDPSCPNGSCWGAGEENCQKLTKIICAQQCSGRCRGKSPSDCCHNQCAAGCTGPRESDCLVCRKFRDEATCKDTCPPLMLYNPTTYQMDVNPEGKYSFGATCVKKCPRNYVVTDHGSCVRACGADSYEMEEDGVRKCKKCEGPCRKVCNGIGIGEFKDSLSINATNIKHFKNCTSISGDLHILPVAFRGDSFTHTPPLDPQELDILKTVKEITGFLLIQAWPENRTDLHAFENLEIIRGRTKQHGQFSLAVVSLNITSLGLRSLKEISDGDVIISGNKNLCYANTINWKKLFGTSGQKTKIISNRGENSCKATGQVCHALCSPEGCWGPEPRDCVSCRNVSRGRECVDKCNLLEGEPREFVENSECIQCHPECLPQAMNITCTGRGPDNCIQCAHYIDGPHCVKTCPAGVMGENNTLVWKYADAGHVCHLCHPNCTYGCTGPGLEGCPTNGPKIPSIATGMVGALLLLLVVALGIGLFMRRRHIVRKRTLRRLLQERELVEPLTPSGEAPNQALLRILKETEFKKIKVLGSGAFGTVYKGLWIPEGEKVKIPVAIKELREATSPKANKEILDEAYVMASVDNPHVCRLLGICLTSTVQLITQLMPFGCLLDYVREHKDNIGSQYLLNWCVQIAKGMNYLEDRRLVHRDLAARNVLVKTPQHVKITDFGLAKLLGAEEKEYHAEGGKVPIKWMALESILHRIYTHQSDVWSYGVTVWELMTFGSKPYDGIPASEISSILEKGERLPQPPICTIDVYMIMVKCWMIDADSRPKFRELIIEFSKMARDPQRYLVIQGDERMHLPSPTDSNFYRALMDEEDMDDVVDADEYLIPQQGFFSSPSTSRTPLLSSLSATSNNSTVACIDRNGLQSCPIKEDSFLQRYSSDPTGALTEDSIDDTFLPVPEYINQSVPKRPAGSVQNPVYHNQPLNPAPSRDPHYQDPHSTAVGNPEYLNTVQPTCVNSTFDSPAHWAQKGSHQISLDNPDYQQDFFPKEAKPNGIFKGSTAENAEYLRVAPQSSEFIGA

IC50 (NCI-H23) [nM] | logD [1] | fraction unbound [2] | CLint scaled [3] [mL/min/kg] | Papp A→B [4] [×10⁻⁶ cm/s] | Papp B→A [5] [×10⁻⁶ cm/s] | AUC(0-t) at 24 h [7] [µM·h] | IC50 (Wee1-like protein kinase) [nM] | SMILES | other results
122 | 2.2 | 0.361 | 34 | 3.4 | 42 | 22 | – | C=CCn1c(=O)c2cnc(Nc3ccc(N4CCN(C)CC4)cc3)nc2n1-c1cccc(C(C)(C)O)n1 [ADAVOSERTIB] | AUC [6]: 0.8 µM·h; Activity (A-427 [8]): Active; AUC at 672 h [9]: 44 µM·h; IC50 (A-427 [10]): 78 nM
226 | 3.4 | 0.027 | 39 | 1.5 | 1.8 | – | 2 | Cc1cn(-c2c(Cl)cccc2Cl)c(=O)c2cnc(Nc3ccc(N4CCN(C)CC4)cc3)nc12 | IC50 (Cytochrome P450 3A4): 4500 nM; efflux ratio [11]: 1.1
317 | 2 | 0.47 | 20 | – | – | 27 | 4.8 | C=CCn1c(=O)c2cnc(Nc3ccc(N4CCN(C)CC4)cc3)nc2n1-c1ccc2c(n1)[C@](C)(O)CC2 | CLint scaled [12]: < 38 mL/min/kg; AUC(0-t) at 24 h [13]: 35 µM·h; fraction unbound [14]: 0.27; inhibition [15]: > 90%; inhibition [16]: > 90%; inhibition [17]: > 90%; inhibition [18]: 75%; inhibition [19]: 75%
